Experimental data published in patent US7198949B2, “Compositions and methods for altering the biodistribution of biological agents” (Board of Regents of the University of Nebraska, priority 1996, dated 2007).
Marks after values point to notes of the source that are not given here.

How the values were obtained:
albumin = albumin (Homo sapiens, UniProt P02768); conditions: drugs which bind to albumin at site 1; cited from earlier work
[1] = biological target: T1, albumin of PESDA microbubbles (Homo sapiens, UniProt P02768); assay: Partitioning of 35S-labeled PS-ODN between PESDA microbubble top layer and lower layer, liquid scintillation counting; type: binding; conditions: for BOTTOM / TOP: N 6; for TOP: top layer containing microbubbles
T1 construct: commercially available albumin (human), U.S.P. solution (generally supplied as 5% or 25% by weight sterile aqueous solutions); purchased
T1 sequence (P02768 25-609): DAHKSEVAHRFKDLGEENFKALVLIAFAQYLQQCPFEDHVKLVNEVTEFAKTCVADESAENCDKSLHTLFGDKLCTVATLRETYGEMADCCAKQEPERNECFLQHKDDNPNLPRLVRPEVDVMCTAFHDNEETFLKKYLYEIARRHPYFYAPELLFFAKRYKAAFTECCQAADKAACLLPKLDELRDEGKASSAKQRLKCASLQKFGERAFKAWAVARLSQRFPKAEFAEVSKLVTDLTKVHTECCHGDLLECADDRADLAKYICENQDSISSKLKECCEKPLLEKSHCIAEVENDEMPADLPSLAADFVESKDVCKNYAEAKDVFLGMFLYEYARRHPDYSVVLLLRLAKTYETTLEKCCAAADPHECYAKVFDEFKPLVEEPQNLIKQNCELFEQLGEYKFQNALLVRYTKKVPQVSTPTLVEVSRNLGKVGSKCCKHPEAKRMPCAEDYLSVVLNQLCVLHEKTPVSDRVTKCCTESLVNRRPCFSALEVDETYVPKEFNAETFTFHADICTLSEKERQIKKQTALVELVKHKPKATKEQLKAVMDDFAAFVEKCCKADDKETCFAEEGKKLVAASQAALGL
Procedure: Radiolabeled oligonucleotides were synthesized as hydrogen phosphonate material by Glen Research (Bethesda, Md.) The uniformly ^35S-labeled PS-ODN with sequences 5′-TATGCTGTGCCGGGGTCTTCGGGC 3′ (24-mer complementary to c-myb) (SEQ ID NO:2) and 5′ TTAGGG 3′ (SEQ ID NO:3) were incubated in a final volume of 0.5 ml with the perfluorocarbon-exposed sonicated dextrose albumin microbubble solution for 30 minutes at 37° C. The solutions were allowed to stand so that the bubbles could rise to the top and 100 microliters were removed from the clear solution at the bottom and 100 microliters were removed from the top containing the microbubbles.
Five percent human serum albumin and five percent dextrose were obtained from a commercial source. Three parts of 5% dexticse and one part 5% human serum albumin (total 16 milliliters) were drawn into a 35-milliliter Monojet syringe. Each dextrose albumin sample was hand agitated with 8±2 milliliters of either a fluorocarbon gas (decafluorobutane; molecular weight 238 grams/mole) or 8±2 milliliters of room air, and the sample was then exposed to electromechanical sonication at 20 kilohertz for 80±5 seconds. The mean size of four consecutive samples of the perfluorocarbon-exposed sonicated dextrose albumin (PESDA) microbubbles produced in this manner, as measured with hemocytometry was 4.6±0.4 microns, and mean concentration, as measured by a Coulter counter was 1.4×10^9 bubbles/milliliter. The solution of microbubbles was then washed in a 1000 times volume excess of 5% dextrose to remove albumin which was not associated with the microbubbles. The microbubbles were allowed four hours to rise. The lower solution was then removed leaving the washed foam. The washed foam was then mixed with 0.9% sodium chloride.
Radioactivity in solutions were determined by liquid scintillation counting in a liquid scintillation counter (model LSC7500; Beckman Instruments GmbH, Munich, Germany). The sample volume was 100 μl to which 5 ml of Hydrocount biodegradable scintillation cocktail was added and mixed. Samples were counted immediately after each experiment and then again 24 hours later in order to reduce the influence of chemiluminescence and of quenching.

human serum albumin = human serum albumin (Homo sapiens, UniProt P02768); conditions: cited from earlier work
human serum albumin, sequence (P02768 25-609): as the sequence (P02768 25-609) above

cytochrome P450 IIB1 = assay: Hexobarbital sleep time and biodistribution in rats given antisense oligos to cytochrome P450 IIB1 with or without PESDA microbubbles; type: in vivo, rat; conditions: PB alone × 2 days, 100 mg/kg HB i.p., control rats about 23 minutes
Procedure: The oligonucleotides were conjugated to perfluoropropane exposed sonicated dextrose albumin microbubbles (PESDA) as earlier described and delivered to rats intravenously.
Male Sprague-Dawley rats (Sasco, Omaha), were used and weighed between 210 to 290 grams for all studies. […] The animals were exposed to 12 hour light/dark cycle and allowed access to Purina rat chow and tap water ad libitum.
Rats in groups with PB were injected intraperitoneally with phenobarbital (Mallinckrodt, St. Louis) at 80 ml/kg/day×2 days. The PB injections were given simultaneously with the ODN-microbubble injections. Phosphorothioate ODN injections were 1 ml/kg/day×2 days. Sleep times were measured 48 hours after the first injection. The rats were injected intraperitoneally with 100 ml/kg hexobarbital (Sigma, St. Louis), paired fresh daily. The volume of this injection is 1 ml/kg body weight.
Each rat was injected with 100 mg/kg of hexobarbital intraperitoneally. The animals were placed on their backs to insure that they were still under sedation from the hexobarbital. Sleep time is defined as the time they are placed on their backs to the time when they roll over. The sleep times listed are the mean of each animal in the group±standard deviation.
As described earlier, 100 mg/kg HB was injected i.p. to each animal at the end of 2 days of treatment with PB and/or the ODNs.

[2] = bubbles in the presence of free albumin
[3] = bubbles in the presence of free albumin, lower clear layer
[4] = washed bubbles (no free albumin)
[5] = washed bubbles (no free albumin), lower layer

albumin, sequence (P02768 25-609): as the sequence (P02768 25-609) above

CCCC(CCC)C(=O)O [Valproic Acid]
% Albumin Binding (albumin): 93.0%

5′-TATGCTGTGCCGGGGTCTTCGGGC 3′ (antisense TATGCTGTGCCGGGGTCTTCGGGC; phosphorothioate backbone, 35S label, further chemistry not given here) [c-myb, uniformly 35S-labeled PS-ODN, 24-mer complementary to c-myb]
RATIO T/B [1, 2]: 1.35 | BOTTOM [1, 3]: 77.3 ± 1.2 cpm/μl | TOP [1, 2]: 94.1 ± 17.6 cpm/μl | RATIO T/B [1, 4]: 2.16 | BOTTOM [1, 5]: 92.7 ± 15.7 cpm/μl | TOP [1, 4]: 200.3 ± 37.4 cpm/μl

Clc1ccc(COC(Cn2ccnc2)c2ccc(Cl)cc2Cl)c(Cl)c1 (stereo not drawn) [Miconazole]
% Albumin Binding (albumin): 90.7–93.1* %

5′ TTAGGG 3′
RATIO T/B [1, 2]: 1.35 | BOTTOM [1, 3]: 92.3 ± 6.4 cpm/μl | TOP [1, 2]: 125 ± 6.4 cpm/μl | RATIO T/B [1, 4]: 1.67 | BOTTOM [1, 5]: 126 ± 8.7 cpm/μl | TOP [1, 4]: 210 ± 10.8 cpm/μl

5′d(AACGTTGAGGGGCAT)-3′ [15 mer PS-ODN]
binding to human serum albumin in solution (dissociation constant range) (human serum albumin): 3.7−4.8×10−5

O=C1NC(=O)C(c2ccccc2)(c2ccccc2)N1 [Phenytoin]
% Albumin Binding (albumin): 89.0%

Cc1noc(NS(=O)(=O)c2ccc(N)cc2)c1C [Sulfisoxazole]
% Albumin Binding (albumin): 91.4%

NS(=O)(=O)c1cc(C(=O)O)c(NCc2ccco2)cc1Cl [Furosemide]
% Albumin Binding (albumin): 98.8%

CN1C(C(=O)Nc2ccccn2)=C(O)c2ccccc2S1(=O)=O [Piroxicam]
% Albumin Binding (albumin): 99.3%

CCC1(c2ccccc2)C(=O)NC(=O)NC1=O [PB, phenobarbital]
sleep time (cytochrome P450 IIB1): about 11.4±4.5 minutes

CO/N=C(\C(=O)N[C@@H]1C(=O)N2C(C(=O)O)=C(CSc3nc(=O)c(=O)[nH]n3C)CS[C@H]12)c1csc(N)n1 [Ceftriaxone]
% Albumin Binding (albumin): 90–95* %
